These results are taken from patent US7659404B2, “Broad spectrum 2-(substituted-amino)-benzothiazole sulfonamide HIV protease inhibitors” (Tibotec Pharmaceuticals Ltd., priority 2001, dated 2010).

Each structure is given as a SMILES string.

Broadly, the EC50 is the concentration that produces a half-maximal response. What is called Cmax is the peak of the concentration-time curve.

The test system of data set [1] is clinically isolated HIV strain K. Put plainly: Antiviral spectrum, cellular assay (fold resistance), strain K. Type of data set: cell-based. Conditions: FR=EC50(mutant strain)/EC50(HIV-1 strain LAI). The procedure, abridged: (§1)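 Cytoprotection of HIV-infected MT4 cells was measured after five days' exposure to compound, using mitochondrial MTT conversion (absorbance 540 nm) as the viability signal. Each isolate's EC50 was normalised to that for HIV-1 LAI to give fold resistance.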

Data set [2] deals with clinically isolated HIV strain N. The data set is described as follows: Antiviral spectrum, cellular assay (fold resistance), strain N. The format is cell-based. Particulars: FR=EC50(mutant strain)/EC50(HIV-1 strain LAI). The procedure, abridged: as §1
Data set [3] deals with clinically isolated HIV strain R. Put plainly: Antiviral spectrum, cellular assay (fold resistance), strain R. The format is cell-based. Conditions: FR=EC50(mutant strain)/EC50(HIV-1 strain LAI). The procedure, abridged:
as §1

The subject of data set [4] is clinically isolated HIV strain G. Put plainly: Antiviral spectrum, cellular assay (fold resistance), strain G. Type of data set: cell-based. Conditions: FR=EC50(mutant strain)/EC50(HIV-1 strain LAI). The procedure, abridged: as §1
The subject of data set [5] is clinically isolated HIV strain Q. The data set is described as follows: Antiviral spectrum, cellular assay (fold resistance), strain Q. Conditions: FR=EC50(mutant strain)/EC50(HIV-1 strain LAI). The format is cell-based. The procedure, abridged:
as §1

Data set [6] relates to clinically isolated HIV strain E. The data set is described as follows: Antiviral spectrum, cellular assay (fold resistance), strain E. The format is cell-based. Particulars: FR=EC50(mutant strain)/EC50(HIV-1 strain LAI). The procedure, abridged: as §1
Data set [7] has as its system clinically isolated HIV strain D. Put plainly: Antiviral spectrum, cellular assay (fold resistance), strain D. Type of data set: cell-based. Particulars: FR=EC50(mutant strain)/EC50(HIV-1 strain LAI). The procedure, abridged:
as §1

In data set [8] the test system is clinically isolated HIV strain M. Put plainly: Antiviral spectrum, cellular assay (fold resistance), strain M. Type of data set: cell-based. Particulars: FR=EC50(mutant strain)/EC50(HIV-1 strain LAI). The procedure, abridged: as §1
The subject of data set [9] is HIV-1 strain LAI. Put plainly: Cellular anti-HIV assay in MT4 cells (MTT), wild type laboratory strain. The format is cell-based. Conditions: Human immunodeficiency virus 1, 120 h; MT4 cells, five days, MTT; read-out: EC50 value against HIV-1 strain LAI. As to the method:
The compounds of the present invention were examined for anti-viral activity in a cellular assay. […] The cellular assay was performed according to the following procedure.
Cellular Assay Experimental Method:
HIV- or mock-infected MT4 cells were incubated for five days in the presence of various concentrations of the inhibitor. At the end of the incubation period, all HIV-infected cells have been killed by the replicating virus in the control cultures in the absence of any inhibitor. Cell viability is measured by measuring the concentration of MTT, a yellow, water soluble tetrazolium dye that is converted to a purple, water insoluble formazan in the mitochondria of living cells only. Upon solubilization of the resulting formazan crystals with isopropanol, the absorbance of the solution is monitored at 540 nm. The values correlate directly to the number of living cells remaining in the culture at the completion of the five day incubation. The inhibitory activity of the compound was monitored on the virus-infected cells and was expressed as EC50 and EC90. These values represent the amount of the compound required to protect 50% and 90%, respectively, of the cells from the cytopathogenic effect of the virus. The toxicity of the compound was measured on the mock-infected cells and was expressed as CC50, which represents the concentration of compound required to inhibit the growth of the cells by 50%. The selectivity index (SI) (ratio CC50/EC50) is an indication of the selectivity of the anti-HIV activity of the inhibitor.

Data set [10] deals with clinically isolated HIV strain C. The data set is described as follows: Antiviral spectrum, cellular assay (fold resistance), strain C. The format is cell-based. Conditions: FR=EC50(mutant strain)/EC50(HIV-1 strain LAI). The procedure, abridged: as §1
Data set [11] deals with clinically isolated HIV strain L. The data set is described as follows: Antiviral spectrum, cellular assay (fold resistance), strain L. The format is cell-based. Particulars: FR=EC50(mutant strain)/EC50(HIV-1 strain LAI). The procedure, abridged: as §1
Data set [12] relates to clinically isolated HIV strain P. The data set is described as follows: Antiviral spectrum, cellular assay (fold resistance), strain P. Particulars: FR=EC50(mutant strain)/EC50(HIV-1 strain LAI). Type of data set: cell-based. The procedure, abridged: as §1
Data set [13] has as its system clinically isolated HIV strain J. The format is cell-based. Conditions: FR=EC50(mutant strain)/EC50(HIV-1 strain LAI). The procedure, abridged:
(§2)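 Anti-HIV activity against multiply mutated clinical isolates is measured in MT4 cells over a five-day incubation, using MTT viability (540 nm) as a proxy for protection from viral cytopathicity. Values are reported as EC50 or as fold change versus the LAI reference strain.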

In data set [14] the test system is clinically isolated HIV strain H. The format is cell-based. Conditions: FR=EC50(mutant strain)/EC50(HIV-1 strain LAI). The procedure, abridged:
as §2

The test system of data set [15] is clinically isolated HIV strain T. Type of data set: cell-based. Particulars: FR=EC50(mutant strain)/EC50(HIV-1 strain LAI). The procedure, abridged:
as §2

Data set [16] has as its system clinically isolated HIV strain I. Type of data set: cell-based. Conditions: FR=EC50(mutant strain)/EC50(HIV-1 strain LAI). The procedure, abridged:
as §2

Data set [17] has as its system clinically isolated HIV strain O. Type of data set: cell-based. Conditions: FR=EC50(mutant strain)/EC50(HIV-1 strain LAI). The procedure, abridged:
as §2

Data set [18] concerns clinically isolated HIV strain B. Put plainly: Antiviral spectrum, cellular assay (fold resistance), strain B. Conditions: FR=EC50(mutant strain)/EC50(HIV-1 strain LAI). Type of data set: cell-based. The procedure, abridged: as §1
Data set [19] has as its system clinically isolated HIV strain A. Put plainly: Antiviral spectrum, cellular assay (fold resistance), strain A. Type of data set: cell-based. Particulars: FR=EC50(mutant strain)/EC50(HIV-1 strain LAI). The procedure, abridged:
as §1

For data set [20], the system named is virus strain S (R13080). Put plainly: microbe, parasite or virus in culture. The format is cell-based, HIV. Particulars: FR=EC50(mutant strain)/EC50(HIV-1 strain LAI); strain S. The procedure, abridged:
as §2

Data set [21] deals with virus strain F (R13025). Put plainly: microbe, parasite or virus in culture. The format is cell-based, HIV. Conditions: FR=EC50(mutant strain)/EC50(HIV-1 strain LAI); strain F. The procedure, abridged: as §2
Data set [22] in a line: Pharmacokinetics after oral dosing in dogs (LC-MS). Type of data set: in vivo. Conditions: blood, 10 mg/kg, or, dog, 10 mpk, DMSO. The method, then: (§3) The pharmacokinetic properties of compounds 20, 88 and 90 were tested on rats and dogs. The compounds were evaluated in Whistar rats, source Iffa Credo, weighing approximately 350 g. Before dosing the animals were fasted overnight (approximately 12 h fasting period). The compounds were dissolved in DMSO. The results represented in the table concern the results from the oral dosing of the compounds. Blood was sampled at 30 min, 1 h, 2 h, 3 h, no pre-dose sample was taken. The amount of the compound in the biological sample was determined using LC-MS. In the table below “or” means oral dosing, “mpk” means mg per kilogram.

Data set [23] can be described thus: Pharmacokinetics after oral dosing in rats (LC-MS). Type of data set: in vivo, Whistar rats. Particulars: Wistar, blood, 10 mg/kg, or, rat, 10 mpk, DMSO. As to the method:
as §3

Regarding `CCOC(=O)Nc1nc2ccc(S(=O)(=O)N(CC(C)C)CC(O)C(Cc3ccccc3)NC(=O)OC3COC4OCCC34)cc2s1` (stereo not drawn) [Compound 2], in [1], the “fold resistance (FR), strain K” value stood at 0.2. Further, the “fold resistance (FR), strain N” value in [2] was found to be 1.1. For the same molecule, the “fold resistance (FR), strain R” value in data set [3] was found to be 0.3. The “fold resistance (FR), strain G” value in data set [4] is recorded as 0.2. Moreover, the “fold resistance (FR), strain Q” value in data set [5] came to 0.3. The “fold resistance (FR), strain E” value in data set [6] came out at 0.4. Further, in [7], the “fold resistance (FR), strain D” value is 0.3. Moreover, the “fold resistance (FR), strain M” value in [8] is 0.3. Moreover, the EC50 in data set [9] was less than 50 nM. For the same molecule, the “fold resistance (FR), strain C” value in data set [10] is recorded as 0.2. In addition, in data set [11], the “fold resistance (FR), strain L” value was 0.2. Also, in data set [12], the “fold resistance (FR), strain P” value turned out to be 0.2. Further, the “fold resistance (FR), strain J” value in [13] is recorded as 0.4. Besides, the “fold resistance (FR), strain H” value in [14] is recorded as 1.0. In addition, in data set [15], the “fold resistance (FR), strain T” value turned out to be 29.6. Besides, the “fold resistance (FR), strain I” value in data set [16] turned out to be 0.7. Also, the “fold resistance (FR), strain O” value in data set [17] was 0.8. Besides, the “fold resistance (FR), strain B” value in data set [18] was 0.2. Moreover, the “fold resistance (FR), strain A” value in [19] stood at 0.3. In addition, the “fold resistance (FR), strain S” value in data set [20] came out at 1.7. Besides, the “fold resistance (FR), strain F” value in data set [21] is listed as 1.1.
Regarding `CC(C)CN(C[C@@H](O)[C@H](Cc1ccccc1)NC(=O)O[C@H]1CCOC1)S(=O)(=O)c1ccc2nc(NCCN(C)C)sc2c1` [Compound 90], the values for the Cmax in data set [22] and in data set [23] (po) were 550 ng/mL and 893 ng/mL, respectively. For the same molecule, in [9], the EC50 was less than 50 nM. In addition, the concentration at 3 h in [23] (oral, read-out: C3hours) was 684 ng/mL. Further, in [20], the “fold resistance (FR), strain S” value is 128.8. Also, in [21], the “fold resistance (FR), strain F” value is on record as 28.8.
As for `Cc1cc(N)ccc1C(=O)NC(Cc1ccccc1)C(O)CN(CC(C)C)S(=O)(=O)c1ccc2nc(NC(=O)CN(C)C)sc2c1` (stereo not drawn) [Compound 43], in data set [1], the “fold resistance (FR), strain K” value is listed as 0.4. Further, in [2], the “fold resistance (FR), strain N” value worked out at 1.2. For the same molecule, the “fold resistance (FR), strain R” value in data set [3] came out at 1.0. In addition, in [4], the “fold resistance (FR), strain G” value was determined as 0.6. In addition, the “fold resistance (FR), strain Q” value in data set [5] was determined as 1.1. Further, the “fold resistance (FR), strain E” value in data set [6] is reported as 0.7. Moreover, the “fold resistance (FR), strain D” value in data set [7] is 0.9. In data set [8], the “fold resistance (FR), strain M” value came to 1.2. Also, in data set [9], the EC50 is less than 50 nM. Further, the “fold resistance (FR), strain C” value in data set [10] came to 1.1. For the same molecule, the “fold resistance (FR), strain L” value in [11] is given as 1.0. Also, the “fold resistance (FR), strain P” value in data set [12] was 0.2. Also, the “fold resistance (FR), strain J” value in data set [13] was determined as 3.4. In addition, in [14], the “fold resistance (FR), strain H” value was 1.3. In addition, the “fold resistance (FR), strain T” value in [15] came to 31.4. For the same molecule, in data set [16], the “fold resistance (FR), strain I” value is given as 1.5. Moreover, the “fold resistance (FR), strain O” value in [17] is recorded as 2.4. Moreover, the “fold resistance (FR), strain B” value in data set [18] was 0.9. In addition, in data set [19], the “fold resistance (FR), strain A” value was found to be 1.1. The “fold resistance (FR), strain S” value in data set [20] came to 3.0. Besides, the “fold resistance (FR), strain F” value in data set [21] was 1.1.
Turning to `CC(C)CN(C[C@@H](O)[C@H](Cc1ccccc1)NC(=O)O[C@H]1CO[C@H]2OCC[C@H]21)S(=O)(=O)c1ccc2nc(NCCN(C)C)sc2c1` [Compound 16], in data set [1], the “fold resistance (FR), strain K” value turned out to be 0.2. In addition, the “fold resistance (FR), strain N” value in [2] was 0.4. The “fold resistance (FR), strain R” value in data set [3] amounted to 0.2. In addition, the “fold resistance (FR), strain G” value in data set [4] amounted to 0.2. The “fold resistance (FR), strain Q” value in data set [5] is given as 0.2. For the same molecule, in data set [6], the “fold resistance (FR), strain E” value came out at 0.3. In addition, the “fold resistance (FR), strain D” value in data set [7] was found to be 0.2. Moreover, in data set [8], the “fold resistance (FR), strain M” value was found to be 0.2. The EC50 in data set [9] was less than 50 nM. In data set [10], the “fold resistance (FR), strain C” value is given as 0.2. The “fold resistance (FR), strain L” value in data set [11] is on record as 0.1. For the same molecule, in data set [12], the “fold resistance (FR), strain P” value is reported as 0.1. The “fold resistance (FR), strain J” value in data set [13] worked out at 0.3. The “fold resistance (FR), strain H” value in data set [14] was found to be 0.3. Moreover, in data set [15], the “fold resistance (FR), strain T” value is reported as 6.6. For the same molecule, the “fold resistance (FR), strain I” value in [16] was 0.3. Besides, the “fold resistance (FR), strain O” value in [17] was 0.3. Further, in data set [18], the “fold resistance (FR), strain B” value is on record as 0.3. The “fold resistance (FR), strain A” value in data set [19] came to 0.2. Besides, the “fold resistance (FR), strain S” value in data set [20] is recorded as 1.6. The “fold resistance (FR), strain F” value in [21] was determined as 0.4.
